The structures appear in SMILES notation. A value given as a limit tells only on which side of the number the result lay.

One may read the IC50 as the concentration at which inhibition is half-maximal.

Sequence of hFEN1 (P39748 whole entry): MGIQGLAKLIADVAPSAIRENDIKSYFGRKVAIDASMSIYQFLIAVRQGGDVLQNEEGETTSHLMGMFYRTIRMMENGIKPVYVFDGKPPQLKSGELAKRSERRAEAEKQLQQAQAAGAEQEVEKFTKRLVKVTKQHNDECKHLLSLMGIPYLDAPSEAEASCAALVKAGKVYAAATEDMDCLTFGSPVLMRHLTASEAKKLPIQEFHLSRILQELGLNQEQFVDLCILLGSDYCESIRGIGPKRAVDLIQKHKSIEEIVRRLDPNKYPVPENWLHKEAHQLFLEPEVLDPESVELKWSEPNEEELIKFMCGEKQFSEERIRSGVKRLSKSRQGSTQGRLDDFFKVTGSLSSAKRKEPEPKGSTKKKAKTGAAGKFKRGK

This experiment concerns the target hFEN1 (Homo sapiens (Human), UniProt P39748). Kind of experiment: Enzymatic IC50 assay, FAM-labeled DNA oligomer substrate, fluorescence intensity (FEN1). As to conditions: hFEN1 70 pM, substrate 100 nM, reaction time 20 minutes, 23° C. It is filed as biochemical. How it is done:
FEN1, EXO1 or XPG enzyme was incubated with compound or vehicle (DMSO) and the FAM-labeled DNA oligomer substrate in a microtiter plate. The stop buffer contains EDTA to stop the enzymatic reaction. The plate is read for fluorescence intensity. The high control (DMSO) with high fluorescence intensity represents no inhibition of enzymatic reaction while the low control (10 μM) with low fluorescence intensity represents full inhibition of enzymatic reaction.
• FEN1 • hFEN1: 70 pM • Substrate: 100 nM • Reaction time: 20 minutes • EXO1 • hEXO1: 6 nM, Isoforml • Substrate: 30 nM • Reaction time: 60 minutes • XPG • hXPG: 100 nM • Substrate: 100 nM • Reaction time: 120 minutes
Annealing Buffer: 50 mM Tris-HCl, 50 mM NaCl, 1 mM DTT Assay buffer: 50 mM Tris-HCl pH 8.0, 10 mM MgCl2, 0.01% BSA, 1 mM DTT Stop buffer: 50 mM EDTA in assay buffer Temperature: 23° C. Total volume: 40 μl Controls: • 0% inhibition control: DMSO • 100% inhibition control: 10 μM (final) 5-chloro-3-hydroxy-1,3-dihydroquinazoline-2,4-dione Enzyme Reaction and Detection: • 1. Prepare 25 μM intermediate stock of the substrate by diluting SEQ ID NO:1, SEQ ID NO:2, and SEQ ID NO:3 in annealing buffer, in a PCR tube. • 2. Place the PCR tube on a heat block, heat at 95° C. for 3 minutes, then drop in 0.2° C. increments over 2 minutes, stopping at 25° C. • 3. Remove the tube and let the tube cool at room temperature. • 4. Transfer 10 μL of 3× final concentration test compounds or DMSO to the appropriate wells of a microtiter plate. • 5. Transfer 10 μL of 3× final concentration enzyme in assay buffer or assay buffer alone to the appropriate wells. • 6. Incubate the plate at room temperature for 15 minutes. • 7. Transfer 10 μL of 3× substrate in assay buffer to all the test wells. • 8. Incubate the plate at room temperature for prescribed reaction time. • 9. Centrifuge the plate at 1000 rpm for 1 minute. • 10. Transfer 10 μL of stop buffer to all the test wells. • 11. Centrifuge the plate at 1000 rpm for 1 minute. • 12. Read the plate on a plate reader.
Regarding `O=C(O)c1c(O)c(=O)n(CC2CCCO2)c2ccsc12` (centres unmarked) [Example 8, 6-hydroxy-5-oxo-4-(tetrahydrofuran-2-ylmethyl)thieno[3,2-b]pyridine-7-carboxylic acid], the half-inhibitory concentration (IC50) lay within 750 to 2250 nM. Under `O=C(O)c1c(O)c(=O)n(CC2CCNCC2)c2ccsc12` [Example 10, 6-hydroxy-5-oxo-4-(4-piperidylmethyl)thieno[3,2-b]pyridine-7-carboxylic acid] stands 2250 to 10000 nM; under `O=C(O)c1c(O)c(=O)n(Cc2cccc(F)c2)c2ccsc12` [Example 11, 4-(3-fluorobenzyl)-6-hydroxy-5-oxo-4,5-dihydrothieno[3,2-b]pyridine-7-carboxylic acid], 250 to 750 nM. Under `O=C(O)c1c(O)c(=O)n(CC2COc3ccccc3O2)c2ccsc12` (centres unmarked) [Example 13, 4-(2,3-dihydro-1,4-benzodioxin-3-ylmethyl)-6-hydroxy-5-oxo-thieno[3,2-b]pyridine-7-carboxylic acid] stands below 200 nM; under `CC(=O)Nc1ccc(Cn2c(=O)c(O)c(C(=O)O)c3sccc32)cc1Cl` [Example 14, 4-(4-acetamido-3-chlorobenzyl)-6-hydroxy-5-oxo-4,5-dihydrothieno[3,2-b]pyridine-7-carboxylic acid], 750 to 2250 nM. On to `CC(C)(C)OC(=O)Nc1ccc(Cn2c(=O)c(O)c(C(=O)O)c3sccc32)cc1` [Example 15, 4-(4-((tert-butoxycarbonyl)amino)benzyl)-6-hydroxy-5-oxo-4,5-dihydrothieno[3,2-b]pyridine-7-carboxylic acid], for which the IC50 is below 200 nM.

`O=C(O)c1c(O)c(=O)n(Cc2ccc3[nH]c(=O)ccc3c2)c2ccsc12` [Example 17, 6-hydroxy-5-oxo-4-[(2-oxo-1H-quinolin-6-yl)methyl]thieno[3,2-b]pyridine-7-carboxylic acid]: the 50% inhibitory concentration (IC50) was 750 to 2250 nM. With `O=C(O)c1c(O)c(=O)n(Cc2ncn(-c3ccccc3)n2)c2ccsc12` [Example 20, 6-hydroxy-5-oxo-4-[(1-phenyl-1H-1,2,4-triazol-3-yl)methyl]-4,5-dihydrothieno[3,2-b]pyridine-7-carboxylic acid], the IC50 fell in the range of 250 to 750 nM.

On to `O=C(O)c1c(O)c(=O)n(Cc2cnn(-c3ccc([N+](=O)[O-])cc3)c2)c2ccsc12` [Example 21, 6-hydroxy-4-{[1-(4-nitrophenyl)-1H-pyrazol-4-yl]methyl}-5-oxo-4,5-dihydrothieno[3,2-b]pyridine-7-carboxylic acid], for which the IC50 is below 200 nM.

Compound `COc1ccc(-n2cc(Cn3c(=O)c(O)c(C(=O)O)c4sccc43)nn2)cc1` [Example 25, 6-hydroxy-4-{[1-(4-methoxyphenyl)triazol-4-yl]methyl}-5-oxo-thieno[3,2-b]pyridine-7-carboxylic acid] registered a half-maximal inhibitory concentration (IC50) below 200 nM.

In turn, `COc1cc(Cn2cc(Cn3c(=O)c(O)c(C(=O)O)c4sccc43)cn2)ccc1C#N` [Example 26, 4-{[1-(4-cyano-3-methoxybenzyl)-1H-pyrazol-4-yl]methyl}-6-hydroxy-5-oxo-4,5-dihydrothieno[3,2-b]pyridine-7-carboxylic acid] came in with an IC50 below 200 nM. Under `O=C(O)c1c(O)c(=O)n(Cc2cnn(CC(=O)N3CC[C@@H](O)C3)c2)c2ccsc12` [Example 27, 6-hydroxy-4-[(1-{2-[(3R)-3-hydroxypyrrolidin-1-yl]-2-oxo-ethyl}pyrazol-4-yl)methyl]-5-oxo-thieno[3,2-b]pyridine-7-carboxylic acid] stands below 200 nM; under `CCOC(=O)c1c(O)c(=O)n(Cc2ccc(OC)cc2)c2ccsc12` [Example 33, ethyl 6-hydroxy-4-(4-methoxybenzyl)-5-oxo-4,5-dihydrothieno[3,2-b]pyridine-7-carboxylate], 2250 to 10000 nM. `O=C(O)c1c(O)c(=O)n(Cc2ccccc2Br)c2ccsc12` [Example 35, 4-(2-bromobenzyl)-6-hydroxy-5-oxo-4,5-dihydrothieno[3,2-b]pyridine-7-carboxylic acid] registered an IC50 of 2250 to 10000 nM. In turn, `O=C(O)c1c(O)c(=O)n(Cc2ccccn2)c2ccsc12` [Example 38, 6-hydroxy-5-oxo-4-(pyridin-2-ylmethyl)-4,5-dihydrothieno[3,2-b]pyridine-7-carboxylic acid] had an IC50 of 2250 to 10000 nM. Next, `CC(=O)Nc1ccccc1Cn1c(=O)c(O)c(C(=O)O)c2sccc21` [Example 39, 4-(2-acetamidobenzyl)-6-hydroxy-5-oxo-4,5-dihydrothieno[3,2-b]pyridine-7-carboxylic acid]: 2250 to 10000 nM; `O=C(O)c1c(O)c(=O)n(Cc2cccc(C(F)(F)F)c2)c2ccsc12` [Example 43, 6-hydroxy-5-oxo-4-(3-(trifluoromethyl)benzyl)-4,5-dihydrothieno[3,2-b]pyridine-7-carboxylic acid]: 250 to 750 nM; `O=C(O)c1c(O)c(=O)n(CC2CCCCC2)c2ccsc12` [Example 44, 4-(cyclohexylmethyl)-6-hydroxy-5-oxo-4,5-dihydrothieno[3,2-b]pyridine-7-carboxylic acid]: 2250 to 10000 nM. Regarding `O=C(O)c1c(O)c(=O)n(Cc2ccncc2)c2ccsc12` [Example 47, 6-hydroxy-5-oxo-4-(pyridin-4-ylmethyl)-4,5-dihydrothieno[3,2-b]pyridine-7-carboxylic acid], the half-inhibitory concentration (IC50) was 2250 to 10000 nM. For the compound `Cn1nc(Cn2c(=O)c(O)c(C(=O)O)c3sccc32)c2ccccc21` [Example 51], the IC50 was 2250 to 10000 nM. `COc1cccc(Cn2c(=O)c(O)c(C(=O)O)c3sccc32)c1` [Example 52, 6-hydroxy-4-(3-methoxybenzyl)-5-oxo-4,5-dihydrothieno[3,2-b]pyridine-7-carboxylic acid] came in with an IC50 of 250 to 750 nM. Next, `N#Cc1ccccc1Cn1c(=O)c(O)c(C(=O)O)c2sccc21` [Example 54, 4-(2-cyanobenzyl)-6-hydroxy-5-oxo-4,5-dihydrothieno[3,2-b]pyridine-7-carboxylic acid]: 2250 to 10000 nM. Regarding `O=C(O)c1c(O)c(=O)n(Cc2cccc(OC(F)(F)F)c2)c2ccsc12` [Example 55, 6-hydroxy-5-oxo-4-(3-(trifluoromethoxy)benzyl)-4,5-dihydrothieno[3,2-b]pyridine-7-carboxylic acid], the concentration for half-maximal inhibition (IC50) is 750 to 2250 nM. Under `O=C(O)c1c(O)c(=O)n(Cc2ccc(OC(F)(F)F)cc2)c2ccsc12` [Example 56, 6-hydroxy-5-oxo-4-(4-(trifluoromethoxy)benzyl)-4,5-dihydrothieno[3,2-b]pyridine-7-carboxylic acid] stands 2250 to 10000 nM; under `O=C(O)c1c(O)c(=O)n(Cc2ccc(OC(F)F)cc2)c2ccsc12` [Example 57, 4-(4-(difluoromethoxy)benzyl)-6-hydroxy-5-oxo-4,5-dihydrothieno[3,2-b]pyridine-7-carboxylic acid], below 200 nM. Next, `N#Cc1cccc(Cn2c(=O)c(O)c(C(=O)O)c3sccc32)c1` [Example 58, 4-(3-cyanobenzyl)-6-hydroxy-5-oxo-4,5-dihydrothieno[3,2-b]pyridine-7-carboxylic acid]: 2250 to 10000 nM; `O=C(O)c1c(O)c(=O)n(Cc2ccc(Cl)c(Cl)c2)c2ccsc12` [Example 59, 4-(3,4-dichlorobenzyl)-6-hydroxy-5-oxo-4,5-dihydrothieno[3,2-b]pyridine-7-carboxylic acid]: 250 to 750 nM. `O=C(O)c1c(O)c(=O)n(Cc2cccnc2)c2ccsc12` [Example 60, 6-hydroxy-5-oxo-4-(pyridin-3-ylmethyl)-4,5-dihydrothieno[3,2-b]pyridine-7-carboxylic acid] came in with an IC50 of 750 to 2250 nM. Under `CC(C)(C)OC(=O)N1CCCC(Cn2c(=O)c(O)c(C(=O)O)c3sccc32)C1` (centres unmarked) [Example 61, 4-{[1-(tert-butoxycarbonyl)piperidin-3-yl]methyl}-6-hydroxy-5-oxo-4,5-dihydrothieno[3,2-b]pyridine-7-carboxylic acid] stands 2250 to 10000 nM. With `COc1ccccc1Cn1c(=O)c(O)c(C(=O)O)c2sccc21` [Example 64, 6-hydroxy-4-(2-methoxybenzyl)-5-oxo-4,5-dihydrothieno[3,2-b]pyridine-7-carboxylic acid], the half-maximal inhibitory concentration (IC50) lay within 2250 to 10000 nM. Under `CC(=O)Nc1cc(Cn2c(=O)c(O)c(C(=O)O)c3sccc32)ccc1Cl` [Example 65, 4-(3-acetamido-4-chlorobenzyl)-6-hydroxy-5-oxo-4,5-dihydrothieno[3,2-b]pyridine-7-carboxylic acid] stands 250 to 750 nM; under `CNC(=O)c1ccc(Cn2c(=O)c(O)c(C(=O)O)c3sccc32)cc1` [Example 67, 6-hydroxy-4-(4-(methylcarbamoyl)benzyl)-5-oxo-4,5-dihydrothieno[3,2-b]pyridine-7-carboxylic acid], 250 to 750 nM.

(Values after US11584755B2 (IDEAYA BIOSCIENCES, INC., priority 2017, dated 2023).)
